Experimental data reported in patent US20210223233A1, “Mitochondrial Conductance Inhibitors and Methods of Use Thereof” (The Regents of the University of California, priority 2018, published 2021).
Where two headings read alike, the source gives them in different places.

Assays:
[1] = system: inner mitochondrial membrane nonselective monovalent cation conductance (NMCC); assay type: biochemical, mouse
Procedure: The homogenate was centrifuged at 700 g for 5-10 min to pellet nuclei and unbroken cells. For some tissues, the first nuclear pellet was resuspended in the same solution and homogenized again to increase the yield of mitochondria. Mitochondria were collected by centrifugation of the supernatant at 8,500 g for 10 min. Mitochondria were suspended in a solution containing 140 mM sucrose, 440 mM D-mannitol, 5 mM HEPES, and 1 mM EGTA (pH adjusted to 7.2 with KOH), and then subjected to a French press at 2,000 psi to rupture the outer mitochondrial membrane (OMNI) and release the inner mitochondrial membrane (IMM) to form mitoplasts. Mitoplasts were pelleted at 10,500 g for 15 min and resuspended for storage in […] of solution containing 750 mM KCl, 100 mM HEPES and 1 mM EGTA (pH adjusted to 7.2 with KOH) to further release the IMM from the OMNI, see FIG. 1A. […] Mitochondria and mitoplasts were prepared at 0-4° C. and stored on ice for up to 5 h. Tissues were isolated from a mitochondrial calcium uniporter (MCU) knock-out mouse unless otherwise indicated.
A glass pipette recording electrode was used to form a gigaohm seal with the IMM in a bath solution containing 150 mM KCl, 10 mM HEPES, and 1 mM EGTA, pH 7.2 (adjusted with KOH). Capacitive transients were completely compensated right after the seal was formed. The patch of the IMM attached to the glass pipette recording electrode was then ruptured by high-amplitude voltage pulses (200-500 mV).
Currents were recorded using an Axopatch 200B amplifier (Molecular Devices). The current was dropped to −160 mV and then ramped up for 850 mS to +80 mV. All voltages indicated correspond to the mitochondrial matrix in respect to the bath (cytosol). Mitoplast conductance was normalized to the membrane capacitance (Cm) in all tissues examined. Current amplitudes for histograms were measured within 5 mS after stepping the membrane from 0 to −160 mV and were normalized to the total current. Whole-mitoplast control currents were recorded in a bath solution containing 150 mM HEPES, 1.5 mM EGTA, pH 7.0 adjusted with Tris base, osmolarity to 300 mmol/kg with sucrose.
For the assay, the pipette solution contained 110 mM Na-gluconate, 5 mM EGTA, 40 mM HEPES, 5 mM EDTA, and 1 mM NaCl and was tonicity adjusted to ˜350-370 mmol/kg with sucrose and pH adjusted to pH 7 with 1 M NaOH. The control bath solution contained 110 mM Na-gluconate, and 40 mM HEPES and was pH adjusted to pH 7 with 1 M NaOH. When assaying for the effect Ca^2+, 5 mM CaCl2) was added to the described bath solution.
For the DCCD assay, mitoplasts were prepared from wild-type C56BL/6 mice. The pipette solution contained 150 mM tetramethylammonium (TMA) hydroxide, 1.5 mM EGTA, 2 mM MgCl2, and 150 mM HEPES, was tonicity adjusted to ˜450 mmol/kg with sucrose and pH adjusted to pH 7 with D Gluconic Acid, and the bath solution contained 150 mM KCl, 1.5 mM EGTA, and 40 mM HEPES, and was pH adjusted to pH 7.2 with 1 M KOH. When assaying for DCCD effect, 10 μM DCCD was added to the described bath solution. […],
When assaying for inhibitor effect, […] or 5 μM CATR was added to the described bath solution.
For the Na^+ assays, the pipette solution contained 110 mM Na-gluconate, 5 mM EGTA, 40 mM HEPES, 5 mM EDTA, and 1 mM NaCl and was tonicity adjusted to ˜350-370 mmol/kg with sucrose and pH adjusted to pH 7 with 1 M NaOH. The bath solution contained 110 mM Na-gluconate, 5 mM EGTA, 40 mM HEPES, and 5 mM EDTA and was pH adjusted to pH 7 with 1 M NaOH.

[2] = log octanol/water partition coefficient; source not stated; cited from earlier work
[3] = 10 μM antimycin in bath, 125 mM K-gluconate, pH 7

N/C(=N\C(=O)c1nc(Cl)c(NCc2ccc(I)cc2)nc1N)NCCCCc1ccccc1 [5m, (E)-3-amino-N-(amino((4-phenylbutyl)amino)methylene)-6-chloro-5-((4-iodobenzyl)amino)pyrazine-2-carboxamide]
effect on monovalent cation conductance ([1]; 1 μM 5m in bath, 125 mM K-gluconate, pH 7): almost completely inhibited

CCCCCCCCN/C(N)=N/C(=O)c1nc(Cl)c(NCc2ccc(I)cc2)nc1N [5o, (E)-3-amino-N-(amino(octylamino)methylene)-6-chloro-5-((4-iodobenzyl)amino)pyrazine-2-carboxamide]
effect on monovalent cation conductance ([1]; 1 μM 5o in bath, 125 mM K-gluconate, pH 7): almost completely inhibited

CN(CCCCCCc1ccccc1)CCCCNC(=O)c1nc(Cl)c(NCc2ccc(Cl)cc2)nc1N [AA6, 3-amino-6-chloro-5-((4-chlorobenzyl)amino)-N-(4-(methyl(6-phenylhexyl)amino)butyl)pyrazine-2-carboxamide]
effect on monovalent cation conductance ([1]; 200 nM AA6 in bath, 125 mM K-gluconate, pH 7): almost completely inhibited

CCCCC/C=C\C/C=C\C/C=C\C/C=C\CCCC(=O)O [AA, arachidonic acid]
effect on monovalent cation conductance ([1]; […] AA in bath, 125 mM K-gluconate, pH 7): little to no effect

C=C1[C@@H]2CC[C@H]3[C@]4(C)C[C@H](O[C@@H]5O[C@H](CO)[C@@H](OS(=O)(=O)O)[C@H](OS(=O)(=O)O)[C@H]5OC(=O)CC(C)C)CC(C(=O)O)(C(=O)O)[C@H]4CC[C@]3(C2)[C@H]1O [CATR, carboxyatractyloside]
effect on monovalent cation conductance ([1]; 5 μM CATR in bath, 125 mM K-gluconate, pH 7): little to no effect

[Ca+2].[Cl-].[Cl-] [Ca^2+, CaCl2]
effect on monovalent cation conductance ([1]; 5 mM CaCl2 added to bath, 110 mM Na-gluconate, no chelator in bath, pH 7): inhibited

C(=NC1CCCCC1)=NC1CCCCC1 [DCCD, dicyclohexylcarbodiimide]
effect on monovalent cation conductance ([1]; 10 μM DCCD in bath, 150 mM KCl bath, TMA pipette, mitoplasts from wild-type C56BL/6 mice): little to no effect

CCN(c1nc(N)c(C(=O)NC(=N)N)nc1Cl)C(C)C [EIPA, 5-(N-ethyl-N-isopropyl)amiloride]
Concentration [1]: 80 µM | effect on monovalent cation conductance ([1]; K+ assay (110 mM K-gluconate, pH 7), 80 μM EIPA in bath): significantly and almost completely inhibited | effect on monovalent cation conductance ([1]; Na+ assay (110 mM Na-gluconate, pH 7), 100 μM EIPA in bath): significantly and almost completely inhibited

C[n+]1ccc(-c2ccccc2)cc1 [MPP+, 1-methyl-4-phenylpyridinium]
effect on monovalent cation conductance ([1]; 0.5 mM MPP+ in bath, 125 mM K-gluconate, pH 7): little to no effect

CN(C)C(=N)NC(=N)N [Metformin]
Concentration [1]: 30000 µM | effect on monovalent cation conductance ([1]; pH 7): almost completely inhibited

[H]/N=C(/N)N/C(=N/[H])NCCc1ccccc1 [Phenformin]
Concentration [1]: 2000 µM | effect on monovalent cation conductance ([1]; 1 mM phenformin in bath, 125 mM K-gluconate, pH 7): almost completely inhibited | logP [2]: −0.83

[H]/N=C(\N/C(=N/[H])Nc1ccc(Cl)cc1)NC(C)C [Proguanil]
Concentration [1]: 100 µM | effect on monovalent cation conductance ([1]; 100 μM proguanil in bath, 125 mM K-gluconate, pH 7): almost completely inhibited | logP [2]: 2.53

C=C(C)[C@H]1Cc2c(ccc3c2O[C@@H]2COc4cc(OC)c(OC)cc4[C@@H]2C3=O)O1 [Rotenone, rotenone]
effect on monovalent cation conductance ([1]; 10 μM rotenone in bath, 110 mM Na-gluconate, pH 7): little to no effect

N/C(=N\C(=O)c1nc(Cl)c(N)nc1N)NCc1ccccc1 [benzamil]
effect on monovalent cation conductance ([1]; 10 μM benzamil in bath, 125 mM K-gluconate, pH 8): little to no effect

CC(C)(C)c1ccc(CCOc2ncnc3ccccc23)cc1 [fenazaquin]
effect on monovalent cation conductance ([1]; 10 μM fenazaquin in bath, 110 mM Na-gluconate, pH 7): little to no effect

Cc1nn(C)c(Oc2ccccc2)c1/C=N/OCc1ccc(C(=O)OC(C)(C)C)cc1 [fenipiroximate]
effect on monovalent cation conductance ([1]; 0.5 μM fenipiroximate in bath, 125 mM K-gluconate, pH 7): little to no effect

CO/C(=C/C(N)=O)[C@H](C)[C@H](/C=C/c1csc(-c2csc([C@@H](C)/C=C/C=C/C(C)C)n2)n1)OC [myxothiazol]
effect on monovalent cation conductance ([1]; 10 μM myxothiazol in bath, 125 mM K-gluconate, pH 7): little to no effect

CC[C@H]1/C=C/C=C/C[C@@H](C)[C@H](O)[C@@](C)(O)C(=O)[C@@H](C)[C@H](O)[C@@H](C)C(=O)[C@@H](C)[C@H](O)[C@@H](C)/C=C/C(=O)O[C@@H]2[C@H](C)[C@H](CC1)O[C@]1(CC[C@H](C)[C@H](C[C@@H](C)O)O1)[C@H]2C [oligomycin]
effect on monovalent cation conductance ([1]; 10 oligomycin (unit not given) in bath, 125 mM K-gluconate, pH 7): little to no effect

C/C=C(\C)[C@H](O)[C@H](C)/C=C(C)/C=C/C/C(C)=C/Cc1nc(OC)c(OC)c(O)c1C [piericidin]
effect on monovalent cation conductance ([1]; 1 μM piericidin in bath, 110 mM K-gluconate, pH 7): little to no effect

CCCCCCCCCCC(O)C1CCC(C2CCC(C(O)CCCCCCCCCCC(O)CC3=CC(C)OC3=O)O2)O1 (stereo not drawn) [rolliniastatin]
effect on monovalent cation conductance ([1]; 2 μM rolliniastatin in bath, 125 mM K-gluconate, pH 7): little to no effect

C/C=C(C)/C=C/C=C/[C@H](OC)[C@@H](C)[C@@H](OC)[C@@H](C)CCc1oc2c(O)c(OC)cc(OC)c2c(=O)c1C [stigmatellin]
effect on monovalent cation conductance ([1]; 0.5 μM stigmatellin in bath, 125 mM K-gluconate, pH 7): little to no effect

Tertiapin Q [TQ]
effect on monovalent cation conductance ([1]; 0.5 μM TQ in bath, 125 mM K-gluconate, pH 7): little to no effect

antimycin
effect on monovalent cation conductance [1, 3]: little to no effect | uncoupling H+ current overlapping with the K+ current [1, 3]: elicited an uncoupling H^+ current

atpenin
effect on monovalent cation conductance ([1]; 0.2 μM or 1 μM atpenin in bath, 125 mM K-gluconate, pH 7): little to no effect

bullatacin
effect on monovalent cation conductance ([1]; 1 μM bullatacin in bath, 125 mM K-gluconate, pH 7): little to no effect
